The source of these data is publication PMC3944116 (CPT: Pharmacometrics & Systems Pharmacology, 2014).

One data set deals with CYP3A4/CYP3A5. The following applies: for Mean value (%), difference in CL/F, cluster C1 vs C4: C1: CYP3A5*1 noncarriers and CYP3A4*22 carriers; for Mean value (%), difference in CL/F, cluster C2 vs C4: C2: CYP3A5*1 noncarriers and CYP3A4*22 noncarriers.
The next data set concerns CYP3A5. Kind of data set: Pharmacogenetic covariate analysis: CYP3A5*3 on CL/F. It is filed as in vivo, human. The settings on record: final model; fractional change of CL/F in CYP3A5*1 carriers.
Another data set in a line: Population PK modeling. The following applies: for Q/F, intercompartmental clearance: F fixed 0.5/1/0.23.
The subject of another data set is CYP3A4. The data set is described as follows: Pharmacogenetic covariate analysis: CYP3A4*22 on CL/F. It is filed as in vivo, human. The following applies: stated as % lower in text; univariate on base model.
For data set [1] the following is noted: cited from earlier work.
[2] abbreviates: base model without covariates, population estimate.
[3] abbreviates: final model with covariates, population estimate.
The mark [4] stands for this setting: final model, median of 1,000 bootstrap runs.

For `C=CC[C@@H]1/C=C(\C)C[C@H](C)C[C@H](OC)[C@H]2O[C@@](O)(C(=O)C(=O)N3CCCC[C@H]3C(=O)O[C@H](/C(C)=C/[C@@H]3CC[C@@H](O)[C@H](OC)C3)[C@H](C)[C@@H](O)CC1=O)[C@H](C)C[C@@H]2OC` [Tacrolimus], in the data set with CYP3A4/CYP3A5 (univariate on base model), the “Mean value (%), difference in CL/F, cluster C1 vs C4” value is recorded as −47% and the “Mean value (%), difference in CL/F, cluster C2 vs C4” value is −33%. For the same molecule, the “difference in clearance introduced for noncarriers of the CYP3A5*1 allele by CYP3A4*22 carriership” value in the data set with CYP3A4/CYP3A5 (C1 vs C2) stood at 14%. Also, the “Mean value (%), difference in CL/F, cluster C3 vs C4” value in the data set on CYP3A4/CYP3A5 (C3: CYP3A5*1 carriers and CYP3A4*22 carriers, univariate on base model) is recorded as −3%. For the same molecule, the “CYP3A5*3 on CL/F, covariate effect” value in the data set with CYP3A5 turned out to be 0.52. Besides, in “Population PK modeling” (setting [2]), the Lagtime of absorption is recorded as 0.81 h and the “Q/F, intercompartmental clearance” value was 17.2 L/h. In the data set “Population PK modeling” (setting [3]), the Ka is 0.55 h⁻¹, the Lagtime is 0.81 h, the Q/F is 21 L/h and the Vc/F was 25.5 L. The “DDPR ≤25 mg (IOV F)” value in the data set “Population PK modeling” (setting [4]) was determined as 0.32. Also, in the data set “Population PK modeling” (final model, hematocrit), the “HTC on CL/F + IOV F, covariate effect” value is reported as −0.587.
What is called CL/F is the apparent clearance, not corrected for the fraction that reaches the circulation. Consider `CO[C@H]1C[C@@H]2CC[C@@H](C)[C@@](O)(O2)C(=O)C(=O)N2CCCC[C@H]2C(=O)O[C@H]([C@H](C)C[C@@H]2CC[C@@H](OCCO)[C@H](OC)C2)CC(=O)[C@H](C)/C=C(\C)[C@@H](O)[C@@H](OC)C(=O)[C@H](C)C[C@H](C)/C=C/C=C/C=C/1C` [Everolimus], for which, in the data set on CYP3A4/CYP3A5 (univariate on base model), the “Mean value (%), difference in CL/F, cluster C1 vs C4” value is listed as −15% and the “Mean value (%), difference in CL/F, cluster C2 vs C4” value is −10%. Besides, the “lower clearance of CYP3A4*22 carriers compared with noncarriers” value with CYP3A4 worked out at 7%. In addition, in data set [1], the “plasma fraction bound to plasma proteins” value is 75%. In “Population PK modeling” (setting [2]), the Lagtime of absorption is given as 0.71 h and the “Q/F, intercompartmental clearance” value was 42.7 L/h. The “Vp/F, apparent peripheral distribution volume” value in “Population PK modeling” (base model without covariates, population estimate, fixed to 500 for tacrolimus) was 348 L. For the same molecule, the Vp/F in the data set “Population PK modeling” (final model with covariates, fixed to 500 for tacrolimus) was determined as 343 L. In the data set “Population PK modeling” (setting [3]), the Ka was 7 h⁻¹, the Lagtime is given as 0.71 h, the Q/F is 43.1 L/h and the Vc/F was 140 L. The molecule also showed a CL/F in the data set “Population PK modeling” (setting [4]) of 16.7 L/h. Besides, the “IBW on Vc/F, covariate effect” value in “Population PK modeling” (final model, ideal BW centered on population median, exponential function) was −0.96.
